{"source": "paper PMC4015959", "about": "“The Structural and Functional Basis of Catalysis Mediated by NAD(P)H:acceptor Oxidoreductase (FerB) of Paracoccus denitrificans” (PLoS ONE, 2014)", "key": {"[1]": {"conditions": "cited from earlier work"}, "FerBHis6": {"system": "FerBHis6", "experiment": "Stopped-flow reduction of enzyme-bound flavin cofactor by NADH", "assay_type": "biochemical, Paracoccus denitrificans", "procedure": "Stopped-flow spectrophotometry was performed on a SFM-3000 (Bio-Logic) stopped-flow system equipped with a 0.8- × 0.8-mm cuvette (FC-08). The temperature was kept constant at 10 °C with a thermostating water bath. Six measurements were averaged for each sample. […] Results from the stopped-flow experiments were analyzed in the Bio-Kine software (BioLogic)."}, "FerBHis6-R95A": {"molecular_target": "T1, FerBHis6-R95A (Paracoccus denitrificans, UniProt A1B9E3, R95A)", "T1 sequence (A1B9E3 1-182 R95A)": "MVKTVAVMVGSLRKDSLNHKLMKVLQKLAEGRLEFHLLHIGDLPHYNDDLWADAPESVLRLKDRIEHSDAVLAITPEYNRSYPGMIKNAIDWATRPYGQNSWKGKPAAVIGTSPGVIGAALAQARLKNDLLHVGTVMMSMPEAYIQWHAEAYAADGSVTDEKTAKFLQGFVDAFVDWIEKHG", "experiment": "NADH:flavin oxidoreductase initial-velocity kinetics of R95A mutant", "assay_type": "biochemical", "description": "(§1) The kinetic parameters ± standard error were determined by fitting the data to the appropriate kinetic equation using nonlinear regression and the program Microcal Origin (version 5.0).\n(§2) Measurements were performed at 30 °C with 61 nM enzyme in 25 mM Tris-HCl buffer (pH 7.4)."}, "[2]": {"system": "Cc1cc2nc3c(=O)[nH]c(=O)nc-3n(C[C@H](O)[C@H](O)[C@H](O)COP(=O)(O)OP(=O)(O)OC[C@H]3O[C@@H](n4cnc5c(N)ncnc54)[C@H](O)[C@@H]3O)c2cc1C", "experiment": "purified protein, by the assay type", "assay_type": "biochemical, Paracoccus denitrificans", "conditions": "other: NADH as donor; pH 7.4; 30.0 °C", "description": "as §1, §2"}, "[3]": {"system": "Cc1cc2nc3c(=O)[nH]c(=O)nc-3n(C[C@H](O)[C@H](O)[C@H](O)CO)c2cc1C", "experiment": "purified protein, by the assay type", "assay_type": "biochemical, Paracoccus denitrificans", "conditions": "other: NADH as donor; pH 7.4; 30.0 °C", "description": "as §1, §2"}, "[4]": {"system": "Cc1cc2nc3c(=O)[nH]c(=O)nc-3n(C[C@H](O)[C@H](O)[C@H](O)COP(=O)(O)O)c2cc1C", "experiment": "purified protein, by the assay type", "assay_type": "biochemical, Paracoccus denitrificans", "conditions": "other: NADH as donor", "description": "as §1, §2"}, "[5]": {"molecular_target": "FerBHis6 wild-type and mutant variants", "experiment": "Steady-state kinetics of NADH oxidation with UQ-0 as acceptor (quinone reductase activity)", "assay_type": "biochemical, Paracoccus denitrificans", "conditions": "UQ-0 100 µM, pH 7.4, 30 °C", "description": "as §1"}, "apoFerBHis6": {"molecular_target": "apoFerBHis6 (Paracoccus denitrificans, UniProt A1B9E3)", "experiment": "Fluorescence titration of free flavin by apoenzyme (dissociation constants)", "assay_type": "binding", "conditions": "for Kd: 25 mM Tris-HCl, pH 7.4, 25 °C, read-out: Kd of apoFerBHis6-flavin complex", "procedure": "Dissociation constants of apoenzyme-flavin complexes were determined from fluorescence titration with excitation at 450 nm by adding of constant amount of the wild-type and mutant variants of apoFerBHis6 into 25 mM Tris-HCl buffer (pH 7.4) with 100 nM FMN or riboflavin. Decreasing emission intensities at 519 nm were recorded on Luminescence Spectrotometer LS-50B (Perkin-Elmer). Series of different concentrations of FMN standard was used for setting of a calibration curve on fluorescence intensity. The dissociation constants Kd were calculated according to [22] and converted to the binding Gibbs energy changes ΔGb = -RTln (1/Kd) (where R, gas constant, T, absolute temperature), from which the variation of Gibbs energy due to mutation (ΔΔGb) was computed as the difference in binding energy between mutant and wild-type enzyme (ΔΔGb = ΔGb(mut) - ΔGb(wt))."}, "FerB": {"system": "FerB", "experiment": "Activity toward external FMN, wild-type enzyme", "assay_type": "biochemical, Paracoccus denitrificans", "description": "as §1"}, "[6]": {"parameters": "method as in PMID 17029888", "conditions": "aqueous solutions; cited from earlier work"}, "B. subtilis YhdA": {"system": "B. subtilis YhdA", "parameters": "method as in PMID 16752898", "conditions": "cited from earlier work"}, "[7]": {"experiment": "Standard redox potential by xanthine/xanthine oxidase method of Massey with reference dye", "assay_type": "physicochemical", "conditions": "50 µM free FMN, pH 7.0"}, "WrbA protein of E. coli": {"system": "WrbA protein of E. coli", "parameters": "method as in PMID 9694845", "conditions": "cited from earlier work"}, "[8]": {"system": "EmoB of Mesorhizobium sp. bacterium BNC1", "conditions": "cited from earlier work"}, "[9]": {"experiment": "FMN self-association in aqueous solution by 1H NMR chemical shift (literature)", "assay_type": "physicochemical", "conditions": "order of magnitude, from association constant of ref 46"}, "[10]": {"molecular_target": "FerB (ferric reductase B, NAD(P)H:acceptor oxidoreductase) of Paracoccus denitrificans with a C-terminal six-histidine tag (Paracoccus denitrificans) (UniProt P84469)", "experiment": "SAXS; 5.0 mg/mL protein, 290.15 K, buffer of the last purification step; dimer to tetramer; volume fractions by OLIGOMER"}, "[11]": {"molecular_target": "FerB (ferric reductase B, NAD(P)H:acceptor oxidoreductase) of Paracoccus denitrificans with a C-terminal six-histidine tag (Paracoccus denitrificans) (UniProt P84469)", "experiment": "SAXS; 1.25 mg/mL protein, 290.15 K, buffer of the last purification step; dimer to tetramer; volume fractions by OLIGOMER"}, "[12]": {"molecular_target": "FerB (ferric reductase B, NAD(P)H:acceptor oxidoreductase) of Paracoccus denitrificans with a C-terminal six-histidine tag (Paracoccus denitrificans) (UniProt P84469)", "experiment": "SEC; Superose 12, 0.1 mL of 0.5 mg/mL protein, 25 mM Tris-HCl pH 7.4, 0.5 mL/min, calibrated with marker proteins; holoenzyme"}, "[13]": {"molecular_target": "FerB (ferric reductase B, NAD(P)H:acceptor oxidoreductase) of Paracoccus denitrificans with a C-terminal six-histidine tag (Paracoccus denitrificans) (UniProt P84469)", "experiment": "SAXS; […] protein, 290.15 K, buffer of the last purification step; dimer to tetramer; volume fractions by OLIGOMER"}}, "note": "Where “and” joins values, the source holds several entries; their conditions need not be identical. Identical values can stand only once."}
{"compound": "Nc1ccc2nc3ccc(N)cc3[n+](-c3ccccc3)c2c1.[Cl-]", "note": "[phenosafranin]", "values": [{"measurement": "E° ´ of reference dye", "setting": "[1]", "result": "−252", "unit": "mV"}]}
{"compound": "COC1=C(OC)C(=O)C(C)=CC1=O", "note": "[UQ-0, 2,3-dimethoxy-5-methyl-1,4-bezoquinone]", "values": [{"measurement": "time to complete oxidation of dithionite pre-reduced flavin cofactor", "setting": "FerBHis6; 200 µM UQ-0, within stopped-flow dead time, all proteins", "result": "≤ 0.4", "unit": "ms"}]}
{"compound": "NC(=O)C1=CN([C@@H]2O[C@H](COP(=O)(O)OP(=O)(O)OC[C@H]3O[C@@H](n4cnc5c(N)ncnc54)[C@H](O)[C@@H]3O)[C@@H](O)[C@H]2O)C=CC1", "note": "[NADH]", "values": [{"measurement": "NADH concentration giving half maximal effect on kobs", "setting": "FerBHis6; 30 µM FerBHis6, 1–5000 µM NADH, 10 °C, anaerobic", "result": "6.4 ± 1.0", "unit": "µM"}, {"measurement": "pH dependence of kobs", "setting": "FerBHis6; 5 mM NADH, pH interval 3–9", "result": "did not depend on pH"}, {"measurement": "limit of kobs (apparent electron-transfer rate constant for FerB-NADH complex)", "setting": "FerBHis6; 10 °C, anaerobic", "result": "147.0 ± 0.4 s⁻¹ and ~140 s⁻¹"}, {"measurement": "Michaelis constant for NADH", "setting": "FerBHis6-R95A; FMN as acceptor, bisubstrate ping-pong fit", "result": "33 ± 7", "unit": "µM"}]}
{"compound": "FerBHis6-R95A (Paracoccus denitrificans PD1222; R95A)", "values": [{"measurement": "Km", "setting": "[2]", "result": "95 ± 7", "unit": "µM"}, {"measurement": "kcat", "setting": "[2]", "result": "38 ± 1", "unit": "s⁻¹"}, {"measurement": "Km", "setting": "[3]", "result": "59 ± 12", "unit": "µM"}, {"measurement": "kcat", "setting": "[3]", "result": "75 ± 10", "unit": "s⁻¹"}, {"measurement": "kcat", "setting": "[4]; 30 °C, 25 mM Tris-HCl pH 7.4", "result": "50 ± 5", "unit": "s⁻¹"}, {"measurement": "Km", "setting": "[4]; pH 7.4, 30.0 °C", "result": "111 ± 15", "unit": "µM"}]}
{"compound": "[2H][C@@H]1C=CN(C2OC(COP(=O)(O)OP(=O)(O)OCC3OC(n4cnc5c(N)ncnc54)C(O)C3O)C(O)C2O)C=C1C(N)=O", "note": "(stereo partly drawn) [[4R-^2H]NADH]", "values": [{"measurement": "kinetic isotope effect for enzyme-catalyzed UQ-0 reduction", "setting": "[5]", "result": "1.07±0.13"}]}
{"compound": "[2H]C1C=CN(C2OC(COP(=O)(O)OP(=O)(O)OCC3OC(n4cnc5c(N)ncnc54)C(O)C3O)C(O)C2O)C=C1C(N)=O", "note": "(centres unmarked) [deuterated NADH]", "values": [{"measurement": "kinetic isotope effect for enzyme-catalyzed UQ-0 reduction", "setting": "[5]", "result": "about 6"}]}
{"compound": "O=C1c2ccccc2C(=O)c2cc(S(=O)(=O)O)ccc21", "note": "[anthraquinone-2-sulfonate]", "values": [{"measurement": "E° ´ of reference dye", "setting": "[1]", "result": "−225", "unit": "mV"}]}
{"compound": "[2H][C@H]1C=CN(C2OC(COP(=O)(O)OP(=O)(O)OCC3OC(n4cnc5c(N)ncnc54)C(O)C3O)C(O)C2O)C=C1C(N)=O", "note": "(stereo partly drawn) [[4S-^2H]NADH]", "values": [{"measurement": "kinetic isotope effect for enzyme-catalyzed UQ-0 reduction", "setting": "[5]", "result": "5.45±0.21"}]}
{"compound": "Cc1cc2nc3c(=O)[nH]c(=O)nc-3n(C[C@H](O)[C@H](O)[C@H](O)CO)c2cc1C", "note": "[riboflavin]", "values": [{"measurement": "Kd", "setting": "apoFerBHis6", "result": "6.58 µM and 6.6 µM"}, {"measurement": "increase in Kd relative to FMN", "setting": "apoFerBHis6; riboflavin vs FMN", "result": 244, "unit": "fold"}]}
{"compound": "Cc1cc2nc3c(=O)[nH]c(=O)nc-3n(C[C@H](O)[C@H](O)[C@H](O)COP(=O)(O)O)c2cc1C", "note": "[FMN, flavin mononucleotide]", "values": [{"measurement": "ratio of kcat toward external FMN to kcat toward UQ-0", "setting": "FerB", "result": "about 0.006"}, {"measurement": "self-association constant", "setting": "[6]", "result": "20 to 100", "unit": "M⁻¹"}, {"measurement": "kcat of FMN reduction", "setting": "B. subtilis YhdA", "result": "60 to 70", "unit": "s⁻¹"}, {"measurement": "E° ´ of free flavin", "setting": "[7]", "result": "−212", "unit": "mV"}, {"measurement": "Kd", "setting": "WrbA protein of E. coli", "result": 2, "unit": "µM"}, {"measurement": "kcat of FMN reduction", "setting": "[8]; calculated from Vmax using subunit mass 21 412 Da", "result": 397, "unit": "s⁻¹"}, {"measurement": "Vmax", "setting": "[8]", "result": 1111, "unit": "µmol/min/mg"}, {"measurement": "kinetic solvent isotope effect kobs(H2O)/kobs(D2O)", "setting": "FerBHis6; 99% deuterium oxide, buffer pH 6.8", "result": 1.9}, {"measurement": "kcat (catalytic constant) of flavin reduction", "setting": "FerBHis6-R95A; NADH as donor, 30 °C, 25 mM Tris-HCl pH 7.4", "result": 50, "unit": "s⁻¹"}, {"measurement": "ratio of kcat toward external FMN to kcat toward UQ-0", "setting": "FerBHis6-R95A; R95A mutation", "result": 0.32}, {"measurement": "E° ´ published value", "setting": "[1]; free FMN", "result": "−207", "unit": "mV"}, {"measurement": "expected dissociation constant of self-association", "setting": "[9]", "result": "~10", "unit": "mM"}, {"measurement": "Kd", "setting": "apoFerBHis6", "result": "0.027 ± 0.002", "unit": "µM"}, {"measurement": "Gibbs binding energy coming from the phosphate", "setting": "apoFerBHis6; calculated from Kd values of FMN and riboflavin", "result": -3.25, "unit": "kcal/mol"}, {"measurement": "total Gibbs binding energy", "setting": "apoFerBHis6; calculated from experimental Kd", "result": -10.3, "unit": "kcal/mol"}]}
{"compound": "O=C1/C(=C2\\Nc3ccc(S(=O)(=O)[O-])cc3C2=O)Nc2ccc(S(=O)(=O)[O-])cc21.[Na+].[Na+]", "note": "[indigo carmine]", "values": [{"measurement": "E° ´ of reference dye", "setting": "[1]", "result": "−125", "unit": "mV"}]}
{"compound": "FerB (ferric reductase B, NAD(P)H:acceptor oxidoreductase) of Paracoccus denitrificans with a C-terminal six-histidine tag (from UniProt P84469 1-27) (enzyme)", "values": [{"measurement": "partial volume fraction of dimer", "setting": "[10]", "result": 9, "unit": "%"}, {"measurement": "partial volume fraction of tetramer", "setting": "[10]", "result": 91, "unit": "%"}, {"measurement": "partial volume fraction of dimer", "setting": "[11]", "result": 34, "unit": "%"}, {"measurement": "partial volume fraction of tetramer", "setting": "[11]", "result": 66, "unit": "%"}, {"measurement": "stoichiometry N", "setting": "[12]", "result": 1.88, "unit": "subunits"}, {"measurement": "partial volume fraction of dimer", "setting": "[13]", "result": 13, "unit": "%"}, {"measurement": "partial volume fraction of tetramer", "setting": "[13]", "result": 87, "unit": "%"}]}
